Measurements from patent US20230321024A1, “METHODS OF TREATING VISUAL DISORDERS USING DAILY LOW DOSING OF A RETINOID COMPOUND” (ELUMINEX BIOSCIENCES (SUZHOU) LIMITED, priority 2020, published 2023).

Tests used:
[1] = Human pharmacokinetics of circulating 9-cis-retinol in blood from completed clinical trials after oral 9-cis-retinyl acetate; assay type: in vivo
Method: FIG. 2 plots human pharmacokinetic (PK) data for the circulating levels of 9-cis-retinol in the blood from completed clinical trials where 9-cis-retinyl acetate was administered orally.
9-cis-retinyl acetate is the acetate ester of 9-cis-retinol. Acetate esters like 9-cis-retinyl acetate are generally short-lived because they are readily hydrolyzed either at physiological pH or by esterases in the blood and other parts of the body.
Thus, further discussion focuses on 9-cis-retinol.
Collated in FIG. 2 are human PK data that show a Cmax between 4 and 7 hours for 9-cis-retinol independent of initial dose administered. A low steady level of 9-cis-retinol is achieved in ˜24 hours. […] The circulating 9-cis-retinol is observed at similar levels from about 24 hours through at least 700 hours after a single dose.
(§1) Clearance from the blood is rapid above ˜8 nM, but quickly drops to zero or near zero below that level. Steady state levels (from ˜24 hrs post dose) are 4.57 nM (10 mg/m^2 dose, 83 samples), 8.32 nM (40 mg/m^2 dose, 149 samples), and 7.46 nM (5 to 60 mg/m^2, 629 samples).

[2] = Population PK model (2 compartment, concentration-dependent clearance) for 9-cis-retinol built on the observed clinical data; details: human blood, FIG. 4
Text: FIG. 3 schematically illustrates a 2 compartment PK model used to describe the observed clinical data.
From the observed PK data analyzed, a population PK model for levels of 9-cis-retinol was built. Based on the observed clinical data, a 2 compartment PK model was constructed (FIG. 3). This kinetic model for 9-cis-retinol includes a recirculation feature that maintains 9-cis-retinol levels for long periods of time. Two features of this model include apparent concentration-dependent clearance of 9-cis-retinol from the blood, and apparent zero or close to zero clearance at low concentrations. This accounts for long recirculating levels of 9-cis-retinol, seen in samples consistently at 100 hours, 300 hours and 700 hours post last dose administered.
as §1

Compound | Steady state levels (from ~24 hrs post dose) ([1]; 10 mg/m^2 dose, 83 samples) [nM] | Steady state levels (from ~24 hrs post dose) ([1]; 40 mg/m^2 dose, 149 samples) [nM] | Steady state levels (from ~24 hrs post dose) ([1]; 5 to 60 mg/m^2, 629 samples) [nM] | Time through which circulating 9-cis-retinol is observed at similar levels ([1]; human, in vivo) | Cmax (time of) for 9-cis-retinol ([1]; human, in vivo, po) [h] | Time at which a low steady level of 9-cis-retinol is achieved ([1]; human, in vivo, po) | Concentration above which clearance from the blood is rapid (drops to zero or near zero below) [2] [nM] | Persistence of 9-cis-retinyl acetate in human blood samples following oral dosing ([1]; human, in vivo, po)
CC1=C(/C=C/C(C)=C\C=C\C(C)=C\CO)C(C)(C)CCC1 [9-cis-retinol] | 4.57 | 8.32 | 7.46 | at least 700 hours | 4 to 7 | about 24 hours | ~8 | –
CC(=O)OC/C=C(C)/C=C/C=C(C)\C=C\C1=C(C)CCCC1(C)C [9-cis-retinyl acetate, (2E,4E,6Z,8E)-3,7-dimethyl-9-(2,6,6-trimethylcyclohex-1-en-1-yl)nona-2,4,6,8-tetraen-1-yl acetate] | – | – | – | – | – | – | – | extremely short lived and rapidly hydrolyzed to 9-cis-retinol
